The assay has as its system human nasal passage. In words: testing of the nasal spray / nasal wash composition applied to the nasal passages. It counts as in vivo. The note with it: CBD at 0.3% by weight in the composition. The protocol: A homogenized mixture of water, cannabinoid, an olfactory stimulant, and inorganic salt when applied to a nasal passage as a mist delivering 0.08 mL to 0.18 mL in each nostril is effective as a nasal wash. A solubilizing agent particularly suited for cannabinoids may also be added, such as those disclosed in U.S. patent application Ser. No. 17/527,465, filed Nov. 16, 2021.
Practicing nasal hygiene by the use of the method of applying to a person's nostril a mist of nasal wash composition comprising the product of compounding under homogenizing conditions water, an amount of a source of chlorine dioxide, 0.1 to 1% by weight cannabinoid; 0.1 to 3% by weight of olfactory stimulant; and 0 to 5% by weight of at least one fixative compound; and blowing air out of the nostril. and composition of the invention, nasal irritation is reduced. […]
It is a feature of the invention that the practice of nasal hygiene according to the invention requires only moderate and convenient quantities of the composition. It is sufficient for the user to place a convenient quantity of the composition, which can range from about 0.3 to 3 milliliters, into each nostril and retain it for a holding period which can range from a fraction of a minute to about ten minutes or as long as comfortable, and then remove it as by blowing the nose. […]

Pain relief data for 1 molecule are collected here from US20230157945A1, “Nasal Hygiene Method and Formulation” (ACTUAL NATURAL HEALTH & WELLNESS PRODUCTS, INC., priority 2018, published 2023).

`C=C(C)[C@@H]1CCC(C)=C[C@H]1c1c(O)cc(CCCCC)cc1O` [CBD, Cannabidiol]: the pain relief result is listed as “effective pain relief”.
